From ChEMBL document CHEMBL5465560, “Selectivity Literature for EUbOPEN Chemogenomic Library” (2024)

Experiments:
[1] = biological target: Tyrosine-protein kinase ABL1 (Homo sapiens, UniProt P00519); settings: at 10 µM
[2] = biological target: T1, Mitogen-activated protein kinase kinase kinase kinase 3 (Homo sapiens) (UniProt Q8IVH8); settings: at 10 µM
T1 sequence (whole entry): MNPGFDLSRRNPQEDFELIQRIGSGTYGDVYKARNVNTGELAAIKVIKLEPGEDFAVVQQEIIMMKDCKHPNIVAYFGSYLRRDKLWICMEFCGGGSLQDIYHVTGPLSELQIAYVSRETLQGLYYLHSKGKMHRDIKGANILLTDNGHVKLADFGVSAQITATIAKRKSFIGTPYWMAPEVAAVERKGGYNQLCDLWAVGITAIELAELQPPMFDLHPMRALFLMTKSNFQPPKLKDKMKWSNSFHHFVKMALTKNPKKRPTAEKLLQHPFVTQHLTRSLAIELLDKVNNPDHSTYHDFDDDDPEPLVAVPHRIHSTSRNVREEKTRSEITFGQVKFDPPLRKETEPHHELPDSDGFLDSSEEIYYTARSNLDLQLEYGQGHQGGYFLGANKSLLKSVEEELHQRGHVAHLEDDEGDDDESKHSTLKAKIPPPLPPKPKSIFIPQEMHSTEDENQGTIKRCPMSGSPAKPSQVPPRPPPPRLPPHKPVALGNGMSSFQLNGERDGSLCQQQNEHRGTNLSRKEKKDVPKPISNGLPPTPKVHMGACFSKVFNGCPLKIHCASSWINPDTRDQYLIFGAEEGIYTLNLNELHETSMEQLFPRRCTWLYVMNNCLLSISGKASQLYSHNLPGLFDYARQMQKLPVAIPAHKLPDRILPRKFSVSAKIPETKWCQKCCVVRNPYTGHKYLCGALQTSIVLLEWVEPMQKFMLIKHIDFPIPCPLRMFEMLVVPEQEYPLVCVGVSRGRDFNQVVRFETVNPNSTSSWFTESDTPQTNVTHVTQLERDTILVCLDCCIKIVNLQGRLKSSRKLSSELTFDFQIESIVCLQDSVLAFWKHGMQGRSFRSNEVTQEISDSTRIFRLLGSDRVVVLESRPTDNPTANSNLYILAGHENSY

[3] = biological target: T2, Serine/threonine-protein kinase 36 (Homo sapiens) (UniProt Q9NRP7); assay: Selectivity interaction (Ambit KINOMEscan and KiNATiv profiling in Jurkat cells) EUB0000090b STK36; assay type: cell-based; settings: at 1 µM
T2 sequence (whole entry): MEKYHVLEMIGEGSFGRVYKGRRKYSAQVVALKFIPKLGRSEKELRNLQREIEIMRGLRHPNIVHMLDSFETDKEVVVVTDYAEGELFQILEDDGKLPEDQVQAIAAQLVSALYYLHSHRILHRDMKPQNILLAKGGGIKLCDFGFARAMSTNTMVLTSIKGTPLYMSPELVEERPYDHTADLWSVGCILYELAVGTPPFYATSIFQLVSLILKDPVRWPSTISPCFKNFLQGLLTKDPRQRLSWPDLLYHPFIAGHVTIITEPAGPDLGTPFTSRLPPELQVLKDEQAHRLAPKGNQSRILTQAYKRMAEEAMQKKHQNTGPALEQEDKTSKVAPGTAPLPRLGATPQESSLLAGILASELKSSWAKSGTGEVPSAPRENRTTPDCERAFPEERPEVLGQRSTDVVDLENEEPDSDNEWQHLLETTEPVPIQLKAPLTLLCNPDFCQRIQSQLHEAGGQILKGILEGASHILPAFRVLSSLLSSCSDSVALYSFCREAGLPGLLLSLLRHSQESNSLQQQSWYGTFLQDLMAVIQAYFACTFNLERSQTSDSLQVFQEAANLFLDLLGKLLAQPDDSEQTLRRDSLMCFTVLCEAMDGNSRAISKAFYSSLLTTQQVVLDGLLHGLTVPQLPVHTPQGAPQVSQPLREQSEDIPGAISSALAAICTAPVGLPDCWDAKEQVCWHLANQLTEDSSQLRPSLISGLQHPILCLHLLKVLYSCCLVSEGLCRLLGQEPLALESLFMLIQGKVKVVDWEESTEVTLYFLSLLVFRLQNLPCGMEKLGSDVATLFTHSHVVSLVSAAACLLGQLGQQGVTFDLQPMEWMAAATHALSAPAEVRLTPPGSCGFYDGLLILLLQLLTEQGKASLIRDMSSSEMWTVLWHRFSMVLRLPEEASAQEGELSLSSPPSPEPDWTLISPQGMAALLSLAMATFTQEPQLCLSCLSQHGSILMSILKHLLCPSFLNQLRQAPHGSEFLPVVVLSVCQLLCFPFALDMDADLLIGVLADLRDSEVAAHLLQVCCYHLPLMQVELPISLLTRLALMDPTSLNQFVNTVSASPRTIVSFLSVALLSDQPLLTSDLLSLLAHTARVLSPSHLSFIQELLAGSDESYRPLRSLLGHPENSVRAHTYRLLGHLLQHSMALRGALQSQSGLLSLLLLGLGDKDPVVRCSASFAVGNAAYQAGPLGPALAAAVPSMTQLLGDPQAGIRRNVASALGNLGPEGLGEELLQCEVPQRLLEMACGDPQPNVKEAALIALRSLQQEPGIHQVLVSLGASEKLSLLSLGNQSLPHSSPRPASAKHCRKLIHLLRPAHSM

[4] = biological target: Tyrosine-protein kinase JAK2 (Homo sapiens, UniProt O60674); assay: Selectivity interaction (Kinase panel (Invitrogen)) EUB0000639a JAK2; settings: at 200 nM
Tyrosine-protein kinase JAK2, sequence (O60674 whole entry): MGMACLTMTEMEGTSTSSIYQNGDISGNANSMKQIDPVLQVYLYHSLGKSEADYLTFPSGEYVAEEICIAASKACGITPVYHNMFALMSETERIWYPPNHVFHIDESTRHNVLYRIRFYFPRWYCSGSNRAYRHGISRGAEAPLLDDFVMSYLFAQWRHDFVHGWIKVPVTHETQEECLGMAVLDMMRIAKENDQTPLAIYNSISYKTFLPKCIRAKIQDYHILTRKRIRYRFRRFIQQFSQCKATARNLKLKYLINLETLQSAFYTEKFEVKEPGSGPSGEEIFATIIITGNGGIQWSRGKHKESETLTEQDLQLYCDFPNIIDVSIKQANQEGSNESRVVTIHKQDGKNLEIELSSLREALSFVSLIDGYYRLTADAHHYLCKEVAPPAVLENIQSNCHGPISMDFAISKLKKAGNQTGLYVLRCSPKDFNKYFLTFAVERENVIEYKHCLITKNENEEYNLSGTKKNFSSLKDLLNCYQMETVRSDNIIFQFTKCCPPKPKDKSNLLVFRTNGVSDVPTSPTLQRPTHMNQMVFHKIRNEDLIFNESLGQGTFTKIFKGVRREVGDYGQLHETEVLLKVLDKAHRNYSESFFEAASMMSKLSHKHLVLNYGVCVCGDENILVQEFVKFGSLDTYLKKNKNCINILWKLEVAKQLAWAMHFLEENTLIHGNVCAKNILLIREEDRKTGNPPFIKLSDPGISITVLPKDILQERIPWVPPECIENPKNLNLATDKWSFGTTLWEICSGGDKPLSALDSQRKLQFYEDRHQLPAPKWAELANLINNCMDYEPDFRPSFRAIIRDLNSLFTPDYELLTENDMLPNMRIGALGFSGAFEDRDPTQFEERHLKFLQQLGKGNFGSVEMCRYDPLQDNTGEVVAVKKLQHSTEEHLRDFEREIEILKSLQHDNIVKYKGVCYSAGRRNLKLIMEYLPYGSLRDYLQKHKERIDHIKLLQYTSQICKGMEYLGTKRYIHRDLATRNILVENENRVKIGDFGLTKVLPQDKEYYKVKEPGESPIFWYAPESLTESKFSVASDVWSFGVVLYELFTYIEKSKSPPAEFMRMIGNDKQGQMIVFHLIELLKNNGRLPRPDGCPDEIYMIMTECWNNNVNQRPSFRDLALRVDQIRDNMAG

[5] = biological target: Angiopoietin-1 receptor (Homo sapiens) (UniProt Q02763); assay: Selectivity interaction (KinomeScan (DiscoverX)) EUB0000229b TEK; settings: at 10 µM
Angiopoietin-1 receptor (Homo sapiens), sequence (Q02763 whole entry): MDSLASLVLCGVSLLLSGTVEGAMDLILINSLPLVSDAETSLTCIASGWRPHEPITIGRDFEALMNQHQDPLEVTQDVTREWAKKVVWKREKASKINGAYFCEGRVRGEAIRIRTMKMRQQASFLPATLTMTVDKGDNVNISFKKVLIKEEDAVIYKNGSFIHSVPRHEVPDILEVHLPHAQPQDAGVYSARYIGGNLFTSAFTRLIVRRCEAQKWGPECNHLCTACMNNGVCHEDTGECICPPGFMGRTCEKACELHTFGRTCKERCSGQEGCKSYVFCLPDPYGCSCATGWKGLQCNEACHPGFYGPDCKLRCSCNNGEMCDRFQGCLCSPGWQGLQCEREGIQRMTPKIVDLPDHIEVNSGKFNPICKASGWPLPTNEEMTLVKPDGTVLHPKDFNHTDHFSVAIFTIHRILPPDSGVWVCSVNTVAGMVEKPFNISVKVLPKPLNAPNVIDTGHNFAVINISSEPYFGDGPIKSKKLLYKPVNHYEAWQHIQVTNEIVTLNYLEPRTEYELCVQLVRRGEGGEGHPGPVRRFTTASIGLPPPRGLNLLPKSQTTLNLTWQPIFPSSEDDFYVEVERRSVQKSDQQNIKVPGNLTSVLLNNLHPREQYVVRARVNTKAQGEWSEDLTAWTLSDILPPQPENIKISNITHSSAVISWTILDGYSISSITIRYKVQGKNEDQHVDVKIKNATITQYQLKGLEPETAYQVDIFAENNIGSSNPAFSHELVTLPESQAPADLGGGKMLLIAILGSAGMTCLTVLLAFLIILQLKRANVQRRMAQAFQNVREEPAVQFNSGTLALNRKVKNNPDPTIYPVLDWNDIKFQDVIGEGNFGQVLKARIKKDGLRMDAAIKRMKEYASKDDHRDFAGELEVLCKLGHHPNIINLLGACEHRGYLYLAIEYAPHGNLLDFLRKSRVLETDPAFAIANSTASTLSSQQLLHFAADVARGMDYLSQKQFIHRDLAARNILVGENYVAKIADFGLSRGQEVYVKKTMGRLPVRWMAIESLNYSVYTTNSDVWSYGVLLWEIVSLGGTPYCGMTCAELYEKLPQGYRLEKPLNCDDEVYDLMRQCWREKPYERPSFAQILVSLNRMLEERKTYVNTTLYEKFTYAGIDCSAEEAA

[6] = biological target: Serine/threonine-protein kinase SMG1 (Homo sapiens) (UniProt Q96Q15); assay: Selectivity interaction (ActivX KiNativ screen (ex vivo kinase selectivity in human PBMCs)) EUB0001619a SMG1; assay type: cell-based; settings: PBMC, at 1 µM

Tyrosine-protein kinase ABL1, sequence (P00519 whole entry): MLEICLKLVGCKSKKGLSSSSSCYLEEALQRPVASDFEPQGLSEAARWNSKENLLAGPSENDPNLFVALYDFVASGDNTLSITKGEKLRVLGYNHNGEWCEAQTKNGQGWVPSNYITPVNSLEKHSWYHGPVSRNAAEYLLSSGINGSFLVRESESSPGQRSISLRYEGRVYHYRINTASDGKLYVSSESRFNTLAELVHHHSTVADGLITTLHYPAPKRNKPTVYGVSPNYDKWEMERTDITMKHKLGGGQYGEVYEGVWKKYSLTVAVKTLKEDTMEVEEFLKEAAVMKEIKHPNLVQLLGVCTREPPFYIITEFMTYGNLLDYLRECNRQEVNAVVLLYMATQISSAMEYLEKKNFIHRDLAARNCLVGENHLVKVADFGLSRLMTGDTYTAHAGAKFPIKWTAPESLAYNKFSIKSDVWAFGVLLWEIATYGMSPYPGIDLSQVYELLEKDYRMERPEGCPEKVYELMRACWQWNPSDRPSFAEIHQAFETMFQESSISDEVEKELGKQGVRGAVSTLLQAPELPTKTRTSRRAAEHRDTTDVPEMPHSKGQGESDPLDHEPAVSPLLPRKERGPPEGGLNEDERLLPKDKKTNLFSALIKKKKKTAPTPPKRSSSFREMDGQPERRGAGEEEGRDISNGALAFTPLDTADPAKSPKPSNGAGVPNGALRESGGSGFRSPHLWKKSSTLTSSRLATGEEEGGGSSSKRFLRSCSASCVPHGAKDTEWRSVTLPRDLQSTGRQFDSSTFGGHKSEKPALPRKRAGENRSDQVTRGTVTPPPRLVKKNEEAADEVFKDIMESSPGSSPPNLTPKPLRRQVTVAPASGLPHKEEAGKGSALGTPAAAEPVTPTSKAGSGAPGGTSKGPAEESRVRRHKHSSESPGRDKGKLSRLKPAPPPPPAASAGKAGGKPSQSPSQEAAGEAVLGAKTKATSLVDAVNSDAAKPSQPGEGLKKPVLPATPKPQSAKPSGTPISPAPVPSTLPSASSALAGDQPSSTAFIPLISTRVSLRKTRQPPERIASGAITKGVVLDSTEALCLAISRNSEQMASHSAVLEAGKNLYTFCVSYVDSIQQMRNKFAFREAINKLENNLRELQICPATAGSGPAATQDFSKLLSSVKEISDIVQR

Q: What does the source list for `Cc1cc([C@@H](C)Nc2ccccc2C(=O)O)c2nc(N3CCOCC3)cc(=O)n2c1` [AZD-6482]?
A: % of control [1]: 100%; % of control [2]: 88%

Q: `CN(C)C/C=C/C(=O)Nc1ccc(C(=O)N2CCCC(Nc3ncc(Cl)c(-c4c[nH]c5ccccc45)n3)C2)cc1` (stereo unspecified) was tested. Which % of control [3] did it give?
A: Its % of control is 85%.

Q: Which % of inhibition [4] does the source give for `CC[C@@H]1[C@H](F)C(=O)N[C@@H]1COc1nccc2cc(C(N)=O)c(OC)cc12` [ZIMLOVISERTIB] here?
A: The % of inhibition was 15.4%.

Q: `COc1cc(N(C)c2ccnc3ccc(C(F)(F)F)cc23)cc(OC)c1OC` was tested. Which % binding [5] did it give?
A: Its % binding is 72%.

Q: Which % of inhibition [6] does the source give for `N#Cc1cccc(-c2c[nH]c3ncnc(N4CCOCC4)c23)c1` here?
A: Its % of inhibition is 13%.
